Assay results from ChEMBL document CHEMBL2074330, “Identification of glutathione as a driving force and leukotriene C4 as a substrate for oatp1, the hepatic sinusoidal organic solute transporter” (J Biol Chem, 1998).

Legend:
[1] = molecular target: T1, Solute carrier organic anion transporter family member 1A1 (Rattus norvegicus, UniProt P46720); experiment: TP_TRANSPORTER: inhibition of LTC4 uptake (LTC4: 0.01uM, Bilirubin ditaurate: 500 uM) in Xenopus laevis oocytes; assay type: functional, cell-based, Oocyte; design: scale not given: the % may be the effect or the level left; settings: probe LTC4, read-out: Activity
T1 sequence (P46720 whole entry): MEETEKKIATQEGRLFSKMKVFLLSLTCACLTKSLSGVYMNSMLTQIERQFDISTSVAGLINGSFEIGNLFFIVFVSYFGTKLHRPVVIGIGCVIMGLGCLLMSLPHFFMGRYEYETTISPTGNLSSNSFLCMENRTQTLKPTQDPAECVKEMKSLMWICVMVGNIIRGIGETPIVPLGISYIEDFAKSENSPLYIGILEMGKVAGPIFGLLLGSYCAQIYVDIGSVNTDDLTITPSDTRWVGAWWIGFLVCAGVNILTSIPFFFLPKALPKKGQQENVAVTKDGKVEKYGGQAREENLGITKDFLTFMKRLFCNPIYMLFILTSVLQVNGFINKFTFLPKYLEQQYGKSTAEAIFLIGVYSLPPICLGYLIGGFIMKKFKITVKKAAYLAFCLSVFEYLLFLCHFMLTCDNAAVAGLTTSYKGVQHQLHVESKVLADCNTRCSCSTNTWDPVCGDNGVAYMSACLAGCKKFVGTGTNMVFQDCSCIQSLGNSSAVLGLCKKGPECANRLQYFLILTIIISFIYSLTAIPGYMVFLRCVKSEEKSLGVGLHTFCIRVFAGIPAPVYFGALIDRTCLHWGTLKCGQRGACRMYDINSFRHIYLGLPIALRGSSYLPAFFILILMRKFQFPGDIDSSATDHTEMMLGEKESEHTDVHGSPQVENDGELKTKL

[2] = molecular target: T1, Solute carrier organic anion transporter family member 1A1; experiment: TP_TRANSPORTER: inhibition of DNP-SG uptake (DNP-SG: 50 uM, Bilirubin ditaurate: 500 uM) in Xenopus laevis oocytes; assay type: functional, cell-based, Oocyte; design: scale not given: the % may be the effect or the level left; settings: probe DNP-SG, read-out: Activity
[3] = molecular target: T1, Solute carrier organic anion transporter family member 1A1; experiment: TP_TRANSPORTER: inhibition of LTC4 uptake (LTC4: 0.01uM, DNP-SG: 1000 uM) in Xenopus laevis oocytes; assay type: functional, cell-based; design: scale not given: the % may be the effect or the level left; settings: oocyte
[4] = molecular target: T1, Solute carrier organic anion transporter family member 1A1; experiment: TP_TRANSPORTER: inhibition of DNP-SG uptake (DNP-SG: 50 uM, p-Chlorophenacyl-SG: 1000 uM) in Xenopus laevis oocytes; assay type: functional, cell-based, Oocyte; design: scale not given: the % may be the effect or the level left; settings: probe DNP-SG, read-out: Activity
[5] = molecular target: T1, Solute carrier organic anion transporter family member 1A1; experiment: TP_TRANSPORTER: inhibition of LTC4 uptake (LTC4: 0.01uM, p-Chlorophenacyl-SG: 1000 uM) in Xenopus laevis oocytes; assay type: functional, cell-based, Oocyte; design: scale not given: the % may be the effect or the level left; settings: probe LTC4, read-out: Activity
[6] = molecular target: T1, Solute carrier organic anion transporter family member 1A1; experiment: TP_TRANSPORTER: inhibition of LTC4 uptake (LTC4: 0.01uM, Ouabain: 500 uM) in Xenopus laevis oocytes; assay type: functional, cell-based, Oocyte; design: scale not given: the % may be the effect or the level left; settings: probe LTC4, read-out: Activity
[7] = molecular target: T1, Solute carrier organic anion transporter family member 1A1; experiment: TP_TRANSPORTER: inhibition of DNP-SG uptake (DNP-SG: 50 uM, Ouabain: 500 uM) in Xenopus laevis oocytes; assay type: functional, cell-based, Oocyte; design: scale not given: the % may be the effect or the level left; settings: probe DNP-SG, read-out: Activity
[8] = molecular target: T1, Solute carrier organic anion transporter family member 1A1; experiment: TP_TRANSPORTER: inhibition of DNP-SG uptake (DNP-SG: 50 uM, BSP: 250 uM) in Xenopus laevis oocytes; assay type: functional, cell-based; design: scale not given: the % may be the effect or the level left; settings: oocyte
[9] = molecular target: T1, Solute carrier organic anion transporter family member 1A1; experiment: TP_TRANSPORTER: inhibition of LTC4 uptake (LTC4: 0.01uM, BSP: 250 uM) in Xenopus laevis oocytes; assay type: functional, cell-based, Oocyte; design: scale not given: the % may be the effect or the level left; settings: probe LTC4, read-out: Activity
[10] = molecular target: T1, Solute carrier organic anion transporter family member 1A1; experiment: TP_TRANSPORTER: inhibition of LTC4 uptake (LTC4: 0.01uM, DIDS: 250 uM) in Xenopus laevis oocytes; assay type: functional, cell-based, Oocyte; design: scale not given: the % may be the effect or the level left; settings: probe LTC4, read-out: Activity
[11] = molecular target: T1, Solute carrier organic anion transporter family member 1A1; experiment: TP_TRANSPORTER: inhibition of DNP-SG uptake (DNP-SG: 50 uM, DIDS: 250 uM) in Xenopus laevis oocytes; assay type: functional, cell-based, Oocyte; design: scale not given: the % may be the effect or the level left; settings: probe DNP-SG, read-out: Activity
[12] = substrate: CCCCC/C=C\C\C=C/C=C/C=C/[C@@H](SC[C@@H](NC(=O)CC[C@H](N)C(=O)O)C(=O)NCC(=O)O)[C@@H](O)CCCC(=O)O; experiment: (§1) TP_TRANSPORTER: uptake in Xenopus laevis oocytes; assay type: functional, cell-based, Oocyte
[13] = substrate: N[C@@H](CCC(=O)N[C@H](CSc1ccc([N+](=O)[O-])cc1[N+](=O)[O-])C(=O)NCC(=O)O)C(=O)O; experiment: as §1; assay type: functional, cell-based, Oocyte

Molecule: C=CC1=C(C)/C(=C/c2[nH]c(Cc3[nH]c(/C=C4\NC(=O)C(C)=C4C=C)c(C)c3CCC(=O)NCCS(=O)(=O)O)c(CCC(=O)NCCS(=O)(=O)O)c2C)NC1=O [BILIRUBIN DITAURATE]
- activity at 500 µM [1]: 4%
- activity at 500 µM [2]: 6%

Molecule: N[C@@H](CCC(=O)N[C@H](CSc1ccc([N+](=O)[O-])cc1[N+](=O)[O-])C(=O)NCC(=O)O)C(=O)O
- Activity [3]: 15%

Molecule: NC(CCC(=O)N[C@@H](CSCC(=O)c1ccc(Cl)cc1)C(=O)NCC(=O)O)C(=O)O (stereo partly drawn)
- activity at 1000 µM [4]: 31%
- activity at 1000 µM [5]: 23%

Molecule: C[C@@H]1O[C@@H](O[C@H]2C[C@@H](O)[C@]3(CO)[C@H]4[C@H](O)C[C@]5(C)[C@@H](C6=CC(=O)OC6)CC[C@]5(O)[C@@H]4CC[C@]3(O)C2)[C@H](O)[C@H](O)[C@H]1O [OUABAIN]
- activity at 500 µM [6]: 52%
- activity at 500 µM [7]: 61%

Molecule: O=C1OC(c2ccc(O)c(S(=O)(=O)[O-])c2)(c2ccc(O)c(S(=O)(=O)[O-])c2)c2c(Br)c(Br)c(Br)c(Br)c21.[Na+].[Na+] [SULFOBROMOPHTHALEIN SODIUM]
- Activity [8]: < 2%
- activity at 250 µM [9]: < 2%

Molecule: O=S(=O)(O)c1cc(N=C=S)ccc1/C=C/c1ccc(NC=S)cc1S(=O)(=O)O
- activity at 250 µM [10]: 25%
- activity at 250 µM [11]: 39%

B1: Solute carrier organic anion transporter family member 1A1 (Rattus norvegicus) (protein)
chain: T1 sequence (P46720 whole entry)
- Km [12]: 0.27 µM
- Km [13]: 408 µM
